Data reported in ChEMBL document CHEMBL1909046, “DrugMatrix in vitro pharmacology data”.

Tests used:
Caspase-1 = molecular target: T1, Caspase-1 (Homo sapiens, UniProt P29466); set-up: species or system Escherichia coli;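 note: Caspase-1 enzyme inhibition assay with a peptide substrate; in other assays of this panel Not Active means under 50% inhibition at 10 µM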
T1 sequence (P29466 whole entry): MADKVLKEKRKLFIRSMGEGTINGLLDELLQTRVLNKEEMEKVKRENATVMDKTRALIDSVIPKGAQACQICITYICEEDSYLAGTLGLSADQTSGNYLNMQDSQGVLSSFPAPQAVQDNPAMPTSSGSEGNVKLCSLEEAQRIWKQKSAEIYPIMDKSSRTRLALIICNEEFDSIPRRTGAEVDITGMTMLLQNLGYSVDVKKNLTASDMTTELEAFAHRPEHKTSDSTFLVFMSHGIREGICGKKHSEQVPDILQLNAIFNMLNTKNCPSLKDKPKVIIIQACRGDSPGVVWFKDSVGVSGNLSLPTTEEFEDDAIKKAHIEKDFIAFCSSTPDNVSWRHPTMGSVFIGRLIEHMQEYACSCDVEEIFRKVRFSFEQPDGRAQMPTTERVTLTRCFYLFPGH

[1] = molecular target: Mitogen-activated protein kinase 14 (Homo sapiens, UniProt Q16539); set-up: species or system Escherichia coli;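 note: inhibition of p38alpha enzyme activity in a biochemical kinase assay, with myelin basic protein serving as substrate; in other assays of this panel Not Active means under 50% inhibition at 10 µM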
Chain of Mitogen-activated protein kinase 14 (Q16539 whole entry): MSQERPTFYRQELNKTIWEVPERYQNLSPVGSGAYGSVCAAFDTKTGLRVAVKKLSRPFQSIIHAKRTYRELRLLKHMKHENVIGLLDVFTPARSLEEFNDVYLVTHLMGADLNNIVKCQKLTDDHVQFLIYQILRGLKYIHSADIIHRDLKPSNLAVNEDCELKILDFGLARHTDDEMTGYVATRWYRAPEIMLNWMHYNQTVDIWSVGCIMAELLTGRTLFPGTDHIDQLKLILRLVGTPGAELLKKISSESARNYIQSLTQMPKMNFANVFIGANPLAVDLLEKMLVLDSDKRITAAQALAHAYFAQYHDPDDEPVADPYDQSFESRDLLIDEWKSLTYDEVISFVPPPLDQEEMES

[2] = DRUGMATRIX: Glutamate, NMDA, Agonism radioligand binding (ligand: [3H] CGP-39653); type: cell membranes, Rattus norvegicus, Wistar, Cerebral cortex, Membrane; settings: Not Active = under 50% inhibition at 10 µM
Cytochrome P450 2E1 = Cytochrome P450 2E1 (Homo sapiens, UniProt P05181); settings: bti-tn-5b1-4; note: in other assays of this panel Not Active means under 50% inhibition at 10 µM
Chain of Cytochrome P450 2E1 (P05181 whole entry): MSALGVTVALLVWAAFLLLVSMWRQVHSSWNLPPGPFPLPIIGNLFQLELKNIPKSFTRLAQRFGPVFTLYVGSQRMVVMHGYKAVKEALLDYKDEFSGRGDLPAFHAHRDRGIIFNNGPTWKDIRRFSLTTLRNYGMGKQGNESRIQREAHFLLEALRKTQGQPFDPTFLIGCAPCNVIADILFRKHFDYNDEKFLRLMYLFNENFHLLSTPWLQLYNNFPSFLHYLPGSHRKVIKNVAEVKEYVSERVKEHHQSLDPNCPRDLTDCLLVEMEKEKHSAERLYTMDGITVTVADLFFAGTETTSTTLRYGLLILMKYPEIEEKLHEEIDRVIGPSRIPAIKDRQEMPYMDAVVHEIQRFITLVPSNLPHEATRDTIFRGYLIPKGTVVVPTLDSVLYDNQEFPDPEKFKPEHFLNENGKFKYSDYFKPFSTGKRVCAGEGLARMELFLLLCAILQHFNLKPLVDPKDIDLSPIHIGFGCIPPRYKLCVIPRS

[3] = molecular target: T2, Type-2 angiotensin II receptor (Homo sapiens, UniProt P50052); type: cell-based; settings: cho-k1; note: in other assays of this panel Not Active means under 50% inhibition at 10 µM
T2 sequence (P50052 whole entry): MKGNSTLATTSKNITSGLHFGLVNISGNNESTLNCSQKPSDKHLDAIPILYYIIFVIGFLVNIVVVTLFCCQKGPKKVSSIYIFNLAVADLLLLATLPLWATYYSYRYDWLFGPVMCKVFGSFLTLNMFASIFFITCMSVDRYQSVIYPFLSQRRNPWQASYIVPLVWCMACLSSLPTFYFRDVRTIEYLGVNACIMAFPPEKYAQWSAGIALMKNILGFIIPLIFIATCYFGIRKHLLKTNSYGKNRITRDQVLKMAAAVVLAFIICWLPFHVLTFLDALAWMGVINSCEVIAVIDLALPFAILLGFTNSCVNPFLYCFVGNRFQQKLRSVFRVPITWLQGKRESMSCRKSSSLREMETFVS

Mu-type opioid receptor = Mu-type opioid receptor (Homo sapiens, UniProt P35372); assay: DRUGMATRIX: Opiate mu (OP3, MOP) radioligand binding (ligand: [3H] Diprenorphine); type: cell membranes, CHO-K1, Membrane; settings: cho-k1; Not Active = under 50% inhibition at 10 µM
Chain of Mu-type opioid receptor (P35372 whole entry): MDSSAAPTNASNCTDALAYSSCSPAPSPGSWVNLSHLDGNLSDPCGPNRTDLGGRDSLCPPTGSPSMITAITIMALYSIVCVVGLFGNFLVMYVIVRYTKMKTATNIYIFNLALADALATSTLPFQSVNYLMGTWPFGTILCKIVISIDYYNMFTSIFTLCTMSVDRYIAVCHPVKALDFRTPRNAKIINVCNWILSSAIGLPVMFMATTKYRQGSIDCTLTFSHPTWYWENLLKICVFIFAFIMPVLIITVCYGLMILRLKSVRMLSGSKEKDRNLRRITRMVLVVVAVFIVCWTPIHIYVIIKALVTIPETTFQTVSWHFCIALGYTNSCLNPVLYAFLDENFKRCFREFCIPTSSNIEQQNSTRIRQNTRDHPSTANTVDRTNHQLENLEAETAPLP

Acetylcholinesterase = Acetylcholinesterase (Homo sapiens, UniProt P22303); assay: DRUGMATRIX: Acetylcholinesterase enzyme inhibition (substrate: acetylthiocholine); type: cell-based, HEK293; settings: hek293; Not Active = under 50% inhibition at 10 µM
Chain of Acetylcholinesterase (P22303 whole entry): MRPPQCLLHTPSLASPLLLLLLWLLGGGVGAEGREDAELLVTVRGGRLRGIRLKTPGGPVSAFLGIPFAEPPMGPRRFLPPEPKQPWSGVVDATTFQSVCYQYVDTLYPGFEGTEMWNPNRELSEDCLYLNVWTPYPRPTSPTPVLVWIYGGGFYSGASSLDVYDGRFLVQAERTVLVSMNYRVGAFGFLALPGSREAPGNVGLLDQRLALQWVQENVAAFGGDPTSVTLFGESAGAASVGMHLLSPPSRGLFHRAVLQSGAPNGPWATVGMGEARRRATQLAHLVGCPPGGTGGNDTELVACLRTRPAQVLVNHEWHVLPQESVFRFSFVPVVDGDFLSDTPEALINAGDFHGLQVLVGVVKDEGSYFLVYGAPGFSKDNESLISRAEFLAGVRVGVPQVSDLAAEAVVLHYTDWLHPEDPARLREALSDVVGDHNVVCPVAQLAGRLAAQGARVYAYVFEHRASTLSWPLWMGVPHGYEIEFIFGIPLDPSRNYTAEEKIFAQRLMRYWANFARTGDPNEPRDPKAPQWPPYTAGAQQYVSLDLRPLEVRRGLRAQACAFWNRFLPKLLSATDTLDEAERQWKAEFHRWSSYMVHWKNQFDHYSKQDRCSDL

[4] = DRUGMATRIX: GABAA, Flunitrazepam, Central radioligand binding (ligand: [3H] Flunitrazepam); type: cell membranes, Rattus norvegicus, Wistar, Brain, Membrane; settings: Not Active = under 50% inhibition at 10 µM
[5] = molecular target: T3, Muscarinic acetylcholine receptor M2 (Homo sapiens, UniProt P08172); type: cell membranes, CHO-K1, Membrane; settings: cho-k1; note: in other assays of this panel Not Active means under 50% inhibition at 10 µM
T3 sequence (P08172 whole entry): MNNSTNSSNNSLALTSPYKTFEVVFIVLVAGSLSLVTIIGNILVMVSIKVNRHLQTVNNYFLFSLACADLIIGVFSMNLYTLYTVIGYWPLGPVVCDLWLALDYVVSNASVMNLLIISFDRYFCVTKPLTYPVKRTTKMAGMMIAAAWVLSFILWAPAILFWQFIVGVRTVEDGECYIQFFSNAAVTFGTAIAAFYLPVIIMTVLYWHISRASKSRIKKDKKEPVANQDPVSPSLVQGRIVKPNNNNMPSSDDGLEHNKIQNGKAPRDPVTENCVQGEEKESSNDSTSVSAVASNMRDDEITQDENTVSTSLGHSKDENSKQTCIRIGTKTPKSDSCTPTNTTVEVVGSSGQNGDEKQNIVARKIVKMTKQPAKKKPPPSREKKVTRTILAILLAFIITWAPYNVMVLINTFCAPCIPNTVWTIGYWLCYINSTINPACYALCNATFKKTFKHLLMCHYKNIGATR

Vasopressin V1a receptor = Vasopressin V1a receptor (Homo sapiens, UniProt P37288); type: cell membranes, Membrane; settings: hek293; note: in other assays of this panel Not Active means under 50% inhibition at 10 µM
Chain of Vasopressin V1a receptor (P37288 whole entry): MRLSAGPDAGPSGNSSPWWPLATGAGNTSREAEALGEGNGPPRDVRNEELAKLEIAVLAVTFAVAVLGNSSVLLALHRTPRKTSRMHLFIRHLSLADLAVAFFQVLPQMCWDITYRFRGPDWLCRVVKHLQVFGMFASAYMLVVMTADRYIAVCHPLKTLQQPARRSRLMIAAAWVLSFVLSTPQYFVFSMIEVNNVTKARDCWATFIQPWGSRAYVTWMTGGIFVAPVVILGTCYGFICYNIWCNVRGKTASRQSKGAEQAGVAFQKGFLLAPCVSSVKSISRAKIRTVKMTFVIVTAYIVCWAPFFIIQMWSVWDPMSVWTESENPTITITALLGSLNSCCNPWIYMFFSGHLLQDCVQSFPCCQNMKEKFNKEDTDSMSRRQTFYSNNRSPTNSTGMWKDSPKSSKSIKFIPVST

Adenosine receptor A3 = molecular target: T4, Adenosine receptor A3 (Homo sapiens, UniProt P0DMS8); type: cell membranes, CHO-K1, Membrane; settings: cho-k1
T4 sequence (P0DMS8 whole entry): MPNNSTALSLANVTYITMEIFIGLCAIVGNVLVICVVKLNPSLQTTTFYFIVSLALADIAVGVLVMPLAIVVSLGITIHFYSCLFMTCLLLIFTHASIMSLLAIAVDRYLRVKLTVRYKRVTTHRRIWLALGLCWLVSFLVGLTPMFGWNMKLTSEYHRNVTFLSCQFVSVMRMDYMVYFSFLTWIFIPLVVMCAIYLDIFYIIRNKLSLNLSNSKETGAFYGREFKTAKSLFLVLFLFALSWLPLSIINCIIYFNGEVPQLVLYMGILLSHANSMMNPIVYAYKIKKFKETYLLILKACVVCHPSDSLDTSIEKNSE

[H]/N=C(/N)N[C@H]1[C@H](O)[C@@H](O)[C@H](O[C@@H]2O[C@@H](C)[C@](O)(C=O)[C@H]2O[C@@H]2O[C@@H](CO)[C@H](O)[C@@H](O)[C@@H]2NC)[C@@H](N/C(N)=N\[H])[C@@H]1O [STREPTOMYCIN]
Not Active: IC50 (Caspase-1) | IC50 [1] | IC50 [2] | Ki [2] | IC50 (Cytochrome P450 2E1) | Ki (Cytochrome P450 2E1) | IC50 [3] | IC50 (Mu-type opioid receptor) | IC50 (Acetylcholinesterase) | IC50 [4] | Ki [4] | IC50 [5] | IC50 (Vasopressin V1a receptor) | IC50 (Adenosine receptor A3)

COc1cc(NS(=O)(=O)c2ccc(N)cc2)nc(OC)n1 [SULFADIMETHOXINE]
Not Active: IC50 (Caspase-1) | IC50 [1] | IC50 [2] | Ki [2] | IC50 (Cytochrome P450 2E1) | Ki (Cytochrome P450 2E1) | IC50 [3] | IC50 (Mu-type opioid receptor) | IC50 (Acetylcholinesterase) | IC50 [4] | Ki [4] | IC50 [5] | IC50 (Vasopressin V1a receptor) | IC50 (Adenosine receptor A3)

Cc1cc(C)nc(NS(=O)(=O)c2ccc(N)cc2)n1 [SULFAMETHAZINE]
Not Active: IC50 (Caspase-1) | IC50 [1] | IC50 [2] | Ki [2] | IC50 (Cytochrome P450 2E1) | Ki (Cytochrome P450 2E1) | IC50 [3] | IC50 (Mu-type opioid receptor) | IC50 (Acetylcholinesterase) | IC50 [4] | Ki [4] | IC50 [5] | IC50 (Vasopressin V1a receptor) | IC50 (Adenosine receptor A3)

C[C@]1(Cn2ccnn2)[C@H](C(=O)O)N2C(=O)C[C@H]2S1(=O)=O [TAZOBACTAM]
Not Active: IC50 (Caspase-1) | IC50 [1] | IC50 [2] | Ki [2] | IC50 (Cytochrome P450 2E1) | Ki (Cytochrome P450 2E1) | IC50 [3] | IC50 (Mu-type opioid receptor) | IC50 (Acetylcholinesterase) | IC50 [4] | Ki [4] | IC50 [5] | IC50 (Vasopressin V1a receptor) | IC50 (Adenosine receptor A3)

CN1C(C(=O)Nc2ccccn2)=C(O)c2sccc2S1(=O)=O [TENOXICAM]
Not Active: IC50 (Caspase-1) | IC50 [1] | IC50 [2] | Ki [2] | IC50 (Cytochrome P450 2E1) | Ki (Cytochrome P450 2E1) | IC50 [3] | IC50 (Mu-type opioid receptor) | IC50 (Acetylcholinesterase) | IC50 [4] | Ki [4] | IC50 [5] | IC50 (Vasopressin V1a receptor) | IC50 (Adenosine receptor A3)

CC(C)(C)c1ccc(C(O)CCCN2CCC(C(O)(c3ccccc3)c3ccccc3)CC2)cc1 (stereo not drawn) [TERFENADINE]
Not Active: IC50 (Caspase-1) | IC50 [1] | IC50 [2] | Ki [2] | IC50 (Cytochrome P450 2E1) | Ki (Cytochrome P450 2E1) | IC50 [3] | IC50 (Mu-type opioid receptor) | IC50 (Acetylcholinesterase) | IC50 [4] | Ki [4] | IC50 [5] | IC50 (Vasopressin V1a receptor) | IC50 (Adenosine receptor A3)

O=C1CCC(N2C(=O)c3ccccc3C2=O)C(=O)N1 (stereo not drawn) [THALIDOMIDE]
Not Active: IC50 (Caspase-1) | IC50 [1] | IC50 [2] | Ki [2] | IC50 (Cytochrome P450 2E1) | Ki (Cytochrome P450 2E1) | IC50 [3] | IC50 (Mu-type opioid receptor) | IC50 (Acetylcholinesterase) | IC50 [4] | Ki [4] | IC50 [5] | IC50 (Vasopressin V1a receptor) | IC50 (Adenosine receptor A3)
